The target of one test is T1, ER-α (Homo sapiens, UniProt P03372).
T1 sequence (P03372 1-595): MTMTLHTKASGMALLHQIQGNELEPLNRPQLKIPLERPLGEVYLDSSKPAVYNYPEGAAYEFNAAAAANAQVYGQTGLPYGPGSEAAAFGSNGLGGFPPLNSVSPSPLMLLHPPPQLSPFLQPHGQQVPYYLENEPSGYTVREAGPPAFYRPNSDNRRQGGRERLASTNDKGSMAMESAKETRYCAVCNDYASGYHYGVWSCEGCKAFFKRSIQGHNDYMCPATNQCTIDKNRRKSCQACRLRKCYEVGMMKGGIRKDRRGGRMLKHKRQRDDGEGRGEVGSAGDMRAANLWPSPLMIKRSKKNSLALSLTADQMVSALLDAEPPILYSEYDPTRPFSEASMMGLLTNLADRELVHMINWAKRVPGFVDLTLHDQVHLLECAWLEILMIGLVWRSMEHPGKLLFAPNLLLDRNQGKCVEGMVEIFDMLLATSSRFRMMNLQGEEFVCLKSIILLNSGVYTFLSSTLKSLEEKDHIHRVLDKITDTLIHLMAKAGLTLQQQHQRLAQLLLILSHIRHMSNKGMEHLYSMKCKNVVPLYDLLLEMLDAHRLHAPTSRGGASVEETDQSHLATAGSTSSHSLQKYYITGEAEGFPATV
Put plainly: Breast Cancer Cell ER-α In Cell Western Assay (SP1). The test is classed as cell-based. The following applies: MCF-7 cells, SP1 antibody, 4 or 24 hr post compound addition; for Emax: MCF7, read-out: ER-α In Cell Western Assay (SP1) Max Response; for DC50: read-out: ER-α In Cell Western Assay (SP1) IC50. Put shortly:
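ER-α protein levels measured by in-cell western with SP1 antibody, ratioed to DRAQ5 DNA signal and given as percent of untreated controls. Compounds added at 0.3–0.000003 μM final (eleven semilog points) to adherent MCF-7 cells in stripped serum; exposure 4 or 24 h before fixation.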

For the next test, the system named is MCF-7 cells. Put plainly: Breast Cancer Cell Viability Assay (MCF-7, CellTiter-Glo). It is filed as cell-based. As to conditions: 5 days' compound exposure; for IC50: Homo sapiens, MCF7, 120 h. Put shortly: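 MCF-7 cells, 320 per well in RPMI with 10% FBS and 20 mM HEPES, adhered overnight, then exposed 5 days to an eleven-point semilog dilution (final 0.3-0.000003 μM). CellTiter-Glo luminescence read; % viability = (sample − cell-free background)/(untreated − background) × 100.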

Structures are written as SMILES.

What is called IC50 is the concentration that gives 50% inhibition. A lower IC50 goes with higher potency. Take `CC/C(=C(/c1ccc(/C=C/C(=O)O)cc1)c1ccc2[nH]ncc2c1)c1ccccc1F` [Compound 16, (E)-3-(4-((E)-2-(2-Fluorophenyl)-1-(1H-indazol-5-yl)but-1-en-1-yl)phenyl)acrylic acid]: on ER-α, the Emax is at least 40% and the DC50 was at most 100 nM. For the same compound, in the test with MCF-7 cells, the “MCF7 Viability Assay Max Response” value is listed as “++ (++ = a single % value ≧ 40%)” and the concentration for half-maximal inhibition (IC50) is at most 100 nM.
For the compound `CC/C(=C(/c1ccc(/C=C/C(=O)O)cc1)c1ccc2[nH]ncc2c1)c1ccc(OC)cc1F` [Compound 129, (E)-3-(4-((E)-2-(2-Fluoro-4-methoxyphenyl)-1-(1H-indazol-5-yl)but-1-en-1-yl)phenyl)acrylic acid], at ER-α, the Emax was at least 40% and the DC50 was at most 100 nM. In the test with MCF-7 cells, the “MCF7 Viability Assay Max Response” value is on record as “++ (++ = a single % value ≧ 40%)” and the IC50 was at most 100 nM.
For the compound `CC/C(=C(/c1ccc(/C=C/C(=O)O)cc1)c1cc(F)c2[nH]ncc2c1)c1ccccc1` [Compound 62, (E)-3-(4-((E)-1-(7-Fluoro-1H-indazol-5-yl)-2-phenylbut-1-en-1-yl)phenyl)acrylic acid], at ER-α, the Emax was at least 40% and the DC50 is at most 100 nM. Moreover, in the test on MCF-7 cells, the “MCF7 Viability Assay Max Response” value is given as “++ (++ = a single % value ≧ 40%)” and the concentration for half-maximal inhibition (IC50) was at most 100 nM.
As for `O=C(O)/C=C/c1ccc(/C(=C(/CCCl)c2ccc(F)cc2Cl)c2ccc3[nH]ncc3c2F)cc1` [Compound 77, (E)-3-(4-((E)-4-Chloro-2-(2-chloro-4-fluorophenyl)-1-(4-fluoro-1H-indazol-5-yl)but-1-en-1-yl)phenyl)acrylic acid], at ER-α, the Emax is at least 40% and the DC50 is at most 100 nM. In the test on MCF-7 cells, the “MCF7 Viability Assay Max Response” value is recorded as “++ (++ = a single % value ≧ 40%)” and the IC50 is at most 100 nM.
With `CC/C(=C(/c1ccc(/C=C/C(=O)O)c(C)c1)c1ccc2[nH]ncc2c1)c1ccccc1` [Compound 101, (E)-3-(4-((E)-1-(1H-Indazol-5-yl)-2-phenylbut-1-en-1-yl)-2-methylphenyl)acrylic acid], at ER-α, the Emax is at least 40%. Further, in the test with MCF-7 cells, the “MCF7 Viability Assay Max Response” value is recorded as “++ (++ = a single % value ≧ 40%)” and the IC50 is at most 100 nM.
`CC/C(=C(/c1ccc(/C=C/C(=O)O)cc1)c1ccc2[nH]ncc2c1)c1ccc(OC)cc1C#N` [Compound 144, (E)-3-(4-((E)-2-(2-Cyano-4-methoxyphenyl)-1-(1H-indazol-5-yl)but-1-en-1-yl)phenyl)acrylic acid]: on ER-α, the Emax was at least 40% and the DC50 is at most 100 nM. In the test on MCF-7 cells, the “MCF7 Viability Assay Max Response” value is “++ (++ = a single % value ≧ 40%)” and the IC50 is at most 100 nM.
Regarding `O=C(O)/C=C/c1ccc(/C(=C(\c2ccccc2)C2CCCCC2)c2ccc3[nH]ncc3c2)cc1` [Compound 54, (E)-3-(4-((E)-2-Cyclohexyl-1-(1H-indazol-5-yl)-2-phenylvinyl)phenyl)acrylic acid], at ER-α, the Emax is at least 40% and the DC50 was at most 100 nM. Besides, in the test on MCF-7 cells, the “MCF7 Viability Assay Max Response” value is reported as “++ (++ = a single % value ≧ 40%)” and the IC50 was at most 100 nM.
For the compound `Cn1ncc2cc(/C(=C(/c3ccccc3)C3CCC3)c3ccc(/C=C/C(=O)O)cc3)ccc21` [Compound 146, (E)-3-(4-((E)-2-Cyclobutyl-1-(1-methyl-1H-indazol-5-yl)-2-phenylvinyl)phenyl)acrylic acid], on ER-α, the Emax is at least 40% and the DC50 is at most 100 nM. In the test on MCF-7 cells, the “MCF7 Viability Assay Max Response” value is on record as “++ (++ = a single % value ≧ 40%)” and the IC50 is at most 100 nM.
For `CC(C)C/C(=C(/c1ccc(/C=C/C(=O)O)cc1)c1ccc2[nH]ncc2c1)c1ccccc1` [Compound 51, (E)-3-(4-((E)-1-(1H-Indazol-5-yl)-4-methyl-2-phenylpent-1-en-1-yl)phenyl)acrylic acid], at ER-α, the Emax was at least 40% and the DC50 was at most 100 nM. Moreover, in the test on MCF-7 cells, the “MCF7 Viability Assay Max Response” value is given as “++ (++ = a single % value ≧ 40%)” and the IC50 is at most 100 nM.
For the compound `CC/C(=C(/c1ccc(/C=C/C(=O)O)cc1)c1ccc2[nH]ncc2c1)c1cccc(OC)c1Cl` [Compound 135, (E)-3-(4-((E)-2-(2-Chloro-3-methoxyphenyl)-1-(1H-indazol-5-yl)but-1-en-1-yl)phenyl)acrylic acid], at ER-α, the Emax is at least 40% and the DC50 is at most 100 nM. Moreover, in the test with MCF-7 cells, the “MCF7 Viability Assay Max Response” value is listed as “++ (++ = a single % value ≧ 40%)” and the IC50 is at most 100 nM.
Turning to `CC/C(=C(/c1ccc(/C=C/C(=O)O)c(Cl)c1)c1ccc2[nH]ncc2c1)c1ccccc1` [Compound 102, (E)-3-(4-((Z)-1-(1H-Indazol-5-yl)-2-phenylbut-1-en-1-yl)-2-chlorophenyl)acrylic acid], on ER-α, the Emax was at least 40% and the DC50 was at most 100 nM. Moreover, in the test on MCF-7 cells, the “MCF7 Viability Assay Max Response” value is recorded as “++ (++ = a single % value ≧ 40%)” and the IC50 was at most 100 nM.
Take `O=C(O)/C=C/c1ccc(/C(=C(/CCF)c2ccccc2)c2ccc3[nH]ncc3c2)cc1` [Compound 66, (E)-3-(4-((E)-4-Fluoro-1-(1H-indazol-5-yl)-2-phenylbut-1-en-1-yl)phenyl)acrylic acid]: at ER-α, the Emax is at least 40% and the DC50 was at most 100 nM. Besides, in the test with MCF-7 cells, the “MCF7 Viability Assay Max Response” value is given as “++ (++ = a single % value ≧ 40%)” and the IC50 was at most 100 nM.
Take `CC/C(=C(/c1ccc(/C=C/C(=O)O)cc1)c1ccc2[nH]ncc2c1Cl)c1ccccc1` [Compound 52, (E)-3-(4-((E)-1-(4-Chloro-1H-indazol-5-yl)-2-phenylbut-1-en-1-yl)phenyl)acrylic acid]: at ER-α, the Emax is at least 40% and the DC50 was at most 100 nM. In the test with MCF-7 cells, the “MCF7 Viability Assay Max Response” value is “++ (++ = a single % value ≧ 40%)” and the IC50 is at most 100 nM.
Turning to `CC(C)/C(=C(/c1ccc(/C=C/C(=O)O)cc1)c1ccc2[nH]ncc2c1)c1ccccc1` [Compound 55, (E)-3-(4-((E)-1-(1H-Indazol-5-yl)-3-methyl-2-phenylbut-1-en-1-yl)phenyl)acrylic acid], on ER-α, the Emax was at least 40% and the DC50 was at most 100 nM. Also, in the test with MCF-7 cells, the “MCF7 Viability Assay Max Response” value is “++ (++ = a single % value ≧ 40%)” and the IC50 was at most 100 nM.
`O=C(O)/C=C/c1ccc(/C(=C(\c2ccc(F)cc2Cl)C(F)F)c2ccc3[nH]ncc3c2)cc1` [Compound 74, (E)-3-(4-((Z)-2-(2-Chloro-4-fluorophenyl)-3,3-difluoro-1-(1H-indazol-5-yl)prop-1-en-1-yl)phenyl)acrylic acid]: on ER-α, the Emax was at least 40% and the DC50 is at most 100 nM. Further, in the test on MCF-7 cells, the “MCF7 Viability Assay Max Response” value was “++ (++ = a single % value ≧ 40%)” and the IC50 is at most 100 nM.
Turning to `CCOC(=O)/C=C/c1ccc(/C(=C(/CC)c2ccc(Cl)cc2Cl)c2ccc3[nH]ncc3c2)cc1` [Compound 112, (E)-Ethyl 3-(4-((E)-2-(2,4-dichlorophenyl)-1-(1H-indazol-5-yl)but-1-en-1-yl)phenyl)acrylate], at ER-α, the Emax was at least 40% and the DC50 was at most 100 nM. Moreover, in the test on MCF-7 cells, the “MCF7 Viability Assay Max Response” value is listed as “+ (+ = a single % value < 40%)” and the IC50 was at most 100 nM.
